Consider three compounds from patent publication US8552163B2, “Liver-targeting agents and their synthesis” (Johns Hopkins University, priority 2009, dated 2013).

The target of data set [1] is T1, ASGPR (Mus musculus, UniProt P24721+P34927).
T1 construct: host or cells: murine hepatocytes (purchased, plated in 24-well plates)
T1 sequence (P34927 1-284): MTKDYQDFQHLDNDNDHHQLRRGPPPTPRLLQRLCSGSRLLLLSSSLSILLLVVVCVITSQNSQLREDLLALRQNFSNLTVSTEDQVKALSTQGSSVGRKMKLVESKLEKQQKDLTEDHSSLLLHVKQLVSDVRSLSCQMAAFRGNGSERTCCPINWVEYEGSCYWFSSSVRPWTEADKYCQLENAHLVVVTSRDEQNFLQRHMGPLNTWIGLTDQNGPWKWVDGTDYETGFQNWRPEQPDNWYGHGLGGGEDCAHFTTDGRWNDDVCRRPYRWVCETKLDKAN
T1 sequence (P24721 1-301): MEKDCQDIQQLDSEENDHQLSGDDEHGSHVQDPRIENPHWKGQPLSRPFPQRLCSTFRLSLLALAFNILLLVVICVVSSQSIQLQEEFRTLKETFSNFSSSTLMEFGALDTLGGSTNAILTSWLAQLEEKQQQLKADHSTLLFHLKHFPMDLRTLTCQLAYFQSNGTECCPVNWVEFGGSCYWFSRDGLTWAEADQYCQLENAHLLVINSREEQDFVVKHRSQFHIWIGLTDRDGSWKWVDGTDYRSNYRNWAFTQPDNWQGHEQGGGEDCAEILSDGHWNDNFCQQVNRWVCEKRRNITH
Kind of data set: Competitive binding assay with Eu-ASOR on murine hepatocyte (time-resolved fluorometry). The following applies: for binding to ASGPR compared with that of YEE or YDD: relative to YEE or YDD, from the IC50 data of Table 1. As for the experimental part: With Eu-asialo-orosomucoid (Eu-ASOR) as a reference material, the binding affinity of the multivalent glyco-ligands (DCM-Lys(ah-GalNAc)3, DCM-Lys(GahGalNAc)3, DCM-Lys(ahLac)3, AHA-Asp[DCM-Lys(ahLac)3]2) and murine hepatocyte can be determined by competitive assay to obtain IC50 (concentration of 50% inhibition), and the lower the IC50 is, the higher the binding affinity. The murine hepatocyte (Lonza Biotechnology Company, Walkersville, Md.) is plated in a 24-well plate in advance, and the reaction occurs in each well, into which (i) Eu-ASOR 10 nM (ii) hepatocyte basic medium with 5 mM calcium chloride, and (iii) five different concentrations of multivalent ligands of 1 μM-0.8 nM are added. After culturing with shaking for 1 hr in the cold, the unbound ligands are removed by washing with the hepatocyte basic medium containing calcium chloride. Time-resolved fluorometry (TRF) is performed, using an enhancement solution (15 μM β-naphthoyl trifluoroacetone, 50 μM tri-n-octyl-phosphine oxide, 0.1% triton X-100 in 0.1 M acetic acid, titrated with potassium hydrogen phthalate to pH 3.2). The enhancement solution reacts with Eu^3+ to form an Eu chelate, which can emit at 615 nm when excited at 340 nm. With the logarithm of the concentration of saccharide chain peptide as X axis, the emitted fluorescence value as Y axis, the fluorescence value without adding glycopeptide being set as 100%, the IC50 values of each ligand can be calculated accordingly.

For data set [2] the following is noted: as first reported by Lee (1983); cited from earlier work.

In the case of `CC(=O)N[C@H]1[C@H](OCCCCCCNC(=O)CNC(=O)CN(CC(=O)NCC(=O)NCCCCCCO[C@@H]2O[C@H](CO)[C@H](O)[C@H](O)[C@H]2NC(C)=O)[C@@H](CCCCN)C(=O)NCC(=O)NCCCCCCO[C@@H]2O[C@H](CO)[C@H](O)[C@H](O)[C@H]2NC(C)=O)O[C@H](CO)[C@H](O)[C@@H]1O` [DCM-Lys(GahGalNAc)3], in data set [1] (competition with 10 nM Eu-ASOR, murine hepatocyte, 5 mM calcium chloride, 1 hr in the cold, read-out: IC50 (concentration of 50% inhibition), binding strength of saccharide chains and murine hepatocyte), the IC50 is 1 nM. Besides, the “binding to ASGPR compared with that of YEE or YDD” value in data set [1] was 10 times.

For the compound `NCCCCCC(=O)NC(CC(=O)NCCCCC(C(=O)NCCCCCCOC1OC(CO)C(OC2OC(CO)C(O)C(O)C2O)C(O)C1O)N(CC(=O)NCCCCCCOC1OC(CO)C(OC2OC(CO)C(O)C(O)C2O)C(O)C1O)CC(=O)NCCCCCCOC1OC(CO)C(OC2OC(CO)C(O)C(O)C2O)C(O)C1O)C(=O)NCCCCC(C(=O)NCCCCCCOC1OC(CO)C(OC2OC(CO)C(O)C(O)C2O)C(O)C1O)N(CC(=O)NCCCCCCOC1OC(CO)C(OC2OC(CO)C(O)C(O)C2O)C(O)C1O)CC(=O)NCCCCCCOC1OC(CO)C(OC2OC(CO)C(O)C(O)C2O)C(O)C1O` (stereo not shown) [AHA-Asp[DCM-Lys(ahLac)3]2], the “binding to ASGPR compared with that of YEE or YDD” value in data set [1] was “the same binding strength as that of YEE or YDD”.

Take `CC(=O)N[C@H]1[C@H](OCCCCCCNC(=O)CC[C@H](NC(=O)CC[C@H](NC(=O)[C@@H](N)Cc2ccc(O)cc2)C(=O)NCCCCCCO[C@@H]2O[C@H](CO)[C@H](O)[C@H](O)[C@H]2NC(C)=O)C(=O)NCCCCCCO[C@@H]2O[C@H](CO)[C@H](O)[C@H](O)[C@H]2NC(C)=O)O[C@H](CO)[C@H](O)[C@@H]1O` [YEE(ahGalNAc)3]: the solubility entry in data set [2] is “poor solubility”.
